The term IC50 denotes the concentration that inhibits the measured activity by half.

Here are results for nine compounds from US7803792B2, “Quaternary ammonium compounds” (Asahi Kasei Pharma Corporation, priority 2002, dated 2010).

Data set [1] deals with T1, human IBAT (Homo sapiens, UniProt Q12908).
T1 construct: expressed in transfected cells; host or cells: Cos 7
T1 sequence (Q12908 1-348): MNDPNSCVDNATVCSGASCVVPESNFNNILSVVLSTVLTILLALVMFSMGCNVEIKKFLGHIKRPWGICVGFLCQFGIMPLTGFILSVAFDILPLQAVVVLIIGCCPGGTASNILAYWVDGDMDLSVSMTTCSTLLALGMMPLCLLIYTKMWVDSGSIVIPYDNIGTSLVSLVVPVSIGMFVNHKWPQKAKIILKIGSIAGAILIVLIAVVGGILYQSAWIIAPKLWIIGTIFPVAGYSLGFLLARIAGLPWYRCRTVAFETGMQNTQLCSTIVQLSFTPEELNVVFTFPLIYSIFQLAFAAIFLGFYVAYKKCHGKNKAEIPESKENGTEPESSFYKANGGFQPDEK
Briefly: In vitro assay of temporarily expressed human IBAT transporter using Cos 7 cells (Test Example 8). It counts as cell-based. As to conditions: Cos 7 cells temporarily expressing human IBAT; [3H] taurocholate 8 μM, 37° C., 60 minutes. The procedure, abridged: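 Cos 7 cells transiently transfected with human or rat IBAT cDNA, assayed one day later in Hank's buffer with 25 mM glucose, 10 mM HEPES (pH 7.4) plus compound. Uptake of 8 μM [^3H]taurocholate over 60 min at 37 °C, stopped with 1 mM taurocholate washes; lysate radioactivity by scintillation counting.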

The subject of data set [2] is bile duct partial ligation model. Kind of data set: Cholestasis-caused hepatopathy model, bile duct partial ligation, protocol A (Test Example 5). It counts as in vivo, rat. As to conditions: 1 mg/kg twice a day 3.5 days, 1% HCO60, average ± standard error; for ALT: controls 417 ± 185 / 384 ± 156; for AST: controls 589 ± 221 / 643 ± 125; for ALP: controls 2318 ± 583 / 2204 ± 327. As to the method:
“Cholestasis-Caused Hepatopathy” Model (Bile Duct Partial Ligation Model)
The “cholestasis-caused hepatopathy” model by partial ligation surgery of bile duct in this test example was handled by referring to the method by Kanno et al. [Kanzo (Liver) 43 Suppl (1): A126, 2002].
That is, the abdomen of a 7 to 10 weeks old SD (IGS) male rat was cut open under anesthesia with pentobarbital and partial ligation surgery of the bile duct was carried out. A blood sample was taken from the femoral vein before the surgery and this was taken as pre-administration value. The test compound and 200 mg/kg of bile acid were forcibly orally administered twice a day for 3.5 days from the next day of the surgery (protocol A). The test compound and 200 mg/kg of bile acid were forcibly orally administered twice a day for 3.5 days without carrying out the partial ligation surgery (protocol B). In both the cases, the test compound was dissolved or suspended in distilled water or an aqueous solution of 1% HCO60 (manufactured by NIPPON CHEMICALS COMPANY, LTD.). […] Moreover, to consider the influence of the surgery, a pseudo operation group (a Sham group) was established as necessary. After 6 hours from the administration of the drug on the last day of the test, a blood sample was taken from the abdominal aorta and AST (GOT), ALT (GPT), and ALP in the blood were measured by using a measurement kit (GOTII-HA TEST WAKO, GPTII-HA TEST WAKO, and ALKALINE PHOSPHER-HA TEST WAKO respectively, all manufactured by WAKO PURE CHEMICAL […], LTD.) with an auto analyzer (NITTECH ANALYZER SUPER Z818).

Data set [3] deals with Caco 2 cells. Briefly: Toxicity with respect to alimentary canal: cytotoxicity to Caco 2, LDH activity (Test Example 12). It counts as cell-based, human. As to conditions: LDH activity after 2 hours, relative to cytolytic agent = 100%. The gist of the method:
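Human Caco 2 intestinal cells, cultured 48 hours after seeding at 10,000 cells/well, received test compounds diluted in medium. LDH released into the medium after 2 hours was measured and expressed relative to cytolytic-agent-lysed cells (100%) as cytotoxicity.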

`CCCCC1(CCCC)CS(=O)(=O)c2ccc(N(C)C)cc2C(c2cccc(NC(=S)CCCCC[N+]34CCC(CC3)CC4)c2)N1.[Br-]` (stereo not drawn) [Example 1, 1-{5-[3-(3,3-Dibutyl-7-dimethylamino-1,1-dioxo-2,3,4,5-tetrahydro-1,4-benzothiazepin-5-yl)phenylthiocarbamoyl]pentyl}-1-azoniabicyclo[2.2.2]octane bromide]: in data set [1], the IC50 turned out to be 0.025 µM.

In turn, `CCCCC1(CCCC)CS(=O)(=O)c2ccc(N(C)C)cc2C(c2cccc(NC(=S)Nc3ccc(C[N+](C)(C)Cc4ccccc4)cc3)c2)N1.[Br-]` (stereo not drawn) [Example 3440] had an IC50 in data set [1] of 0.037 µM. In addition, in data set [2], the ALT worked out at 155 ± 38 IU/L, the AST came out at 309 ± 37 IU/L and the ALP was determined as 1614 ± 189 IU/L. The “Toxicity (%) to Caco 2” value in data set [3] (3 μM) is recorded as under 1%. For the same compound, the “Toxicity (%) to Caco 2” value in data set [3] (10 μM) is recorded as under 1%. The “Toxicity (%) to Caco 2” value in data set [3] (30 μM) was under 1%.

Consider `C#CC[N+](C)(Cc1ccccc1)Cc1ccc(NC(=S)Nc2cccc(C3NC(CCCC)(CCCC)CS(=O)(=O)c4ccc(N(C)C)cc43)c2)cc1` (stereo not drawn) [Example 3448], for which the IC50 in data set [1] amounted to 0.037 µM. In data set [2], this compound came in with an ALT of 181 ± 79 IU/L, an AST of 352 ± 210 IU/L and an ALP of 1148 ± 332 IU/L. For the same compound, the “Toxicity (%) to Caco 2” value in data set [3] (3 μM) is under 1%. In addition, the “Toxicity (%) to Caco 2” value in data set [3] (10 μM) is listed as under 1%. For the same compound, the “Toxicity (%) to Caco 2” value in data set [3] (30 μM) is reported as under 1%.

In data set [1], `CCCCC1(CCCC)CS(=O)(=O)c2ccc(N(C)C)cc2C(c2cccc(NC(=S)Nc3ccc(C[N+]4(Cc5ccccc5)CCC(O)CC4)cc3)c2)N1.[Br-]` (stereo not drawn) [Example 3605] had a 50% inhibitory concentration (IC50) of 0.039 µM. In addition, the ALT in data set [2] was determined as 258 ± 219 IU/L. For the same compound, in data set [2], the AST amounted to 487 ± 382 IU/L. Besides, the ALP in data set [2] is reported as 1489 ± 533 IU/L. Further, the “Toxicity (%) to Caco 2” value in data set [3] (3 μM), in data set [3] (10 μM) and in data set [3] (30 μM) was under 1% in each case.

In turn, `CCCCC1(CCCC)CS(=O)(=O)c2ccc(N(C)C)cc2C(c2cccc(NC(=S)Nc3ccc(C[N+]45CCC(c6ccccc6)(CC4)CC5)cc3)c2)N1.[Br-]` (stereo not drawn) [Example 3696] gave an IC50 in data set [1] of 0.039 µM. In data set [2], this compound gave an ALT of 191 ± 21 IU/L, an AST of 325 ± 87 IU/L and an ALP of 1209 ± 125 IU/L. Besides, the “Toxicity (%) to Caco 2” value in data set [3] (3 μM) is recorded as under 1%. Further, in data set [3] (10 μM), the “Toxicity (%) to Caco 2” value is under 1%. Further, in data set [3] (30 μM), the “Toxicity (%) to Caco 2” value is listed as under 1%.

Regarding `CCCCC1(CCCC)CS(=O)(=O)c2ccc(N(C)C)cc2C(c2cccc(NC(=S)Nc3ccc(C[n+]4ccc(C(C)(C)C)cc4)cc3)c2)N1.[Br-]` (stereo not drawn) [Example 3713], the half-maximal inhibitory concentration (IC50) in data set [1] amounted to 0.037 µM. In data set [2], this compound showed an ALT of 163 ± 96 IU/L, an AST of 280 ± 61 IU/L and an ALP of 1008 ± 289 IU/L. Besides, the “Toxicity (%) to Caco 2” value in data set [3] (3 μM) was under 1%. For the same compound, the “Toxicity (%) to Caco 2” value in data set [3] (10 μM) is given as under 1%. In addition, the “Toxicity (%) to Caco 2” value in data set [3] (30 μM) is given as under 1%.

For `CCCCC1(CCCC)CS(=O)(=O)c2ccc(N(C)C)cc2C(c2cccc(NC(=S)Nc3ccc(C[n+]4cccc(CCCO)c4)cc3)c2)N1.[Br-]` (stereo not drawn) [Example 3747], in data set [1], the IC50 was 0.045 µM. In data set [2], this compound showed an ALT of 146 ± 70 IU/L, an AST of 245 ± 81 IU/L and an ALP of 960 ± 259 IU/L. Besides, in data set [3] (3 μM), the “Toxicity (%) to Caco 2” value was under 1%. Besides, in data set [3] (10 μM), the “Toxicity (%) to Caco 2” value was under 1%. Moreover, in data set [3] (30 μM), the “Toxicity (%) to Caco 2” value is under 1%.

Take `CCCCC1(CCCC)CS(=O)(=O)c2ccc(N(C)C)cc2C(c2cccc(NC(=S)Nc3ccc(C[n+]4cccc(CCC(=O)OC)c4)cc3)c2)N1.[Br-]` (stereo not drawn) [Example 3752]: the concentration for half-maximal inhibition (IC50) in data set [1] worked out at 0.041 µM. Further, in data set [2], the ALT was 165 ± 47 IU/L, the AST worked out at 358 ± 87 IU/L and the ALP was 1112 ± 184 IU/L. Also, in data set [3] (3 μM), the “Toxicity (%) to Caco 2” value was under 1%. Also, the “Toxicity (%) to Caco 2” value in data set [3] (10 μM) was under 1%. The “Toxicity (%) to Caco 2” value in data set [3] (30 μM) is under 1%.

Turning to `CCCCC1(CCCC)CS(=O)(=O)c2ccc(N(C)C)cc2C(c2cccc(NC(=S)Nc3ccc(C[n+]4ccccc4CCC)cc3)c2)N1.[Br-]` (stereo not drawn) [Example 5408], in data set [1], the IC50 was 0.032 µM. In data set [2], this compound registered an ALT of 197 ± 45 IU/L, an AST of 198 ± 65 IU/L and an ALP of 1005 ± 102 IU/L. In data set [3] (3 μM), the “Toxicity (%) to Caco 2” value is reported as under 1%. Also, the “Toxicity (%) to Caco 2” value in data set [3] (10 μM) is given as under 1%. In addition, in data set [3] (30 μM), the “Toxicity (%) to Caco 2” value is recorded as under 1%.
